Data on 6 compounds can be found in article PMC5994333, “-Chemical profiling and biological activity of Peperomia blanda (Jacq.) Kunth” (PeerJ, 2018).

Values after ≈ are worked out from the molar mass of the structure shown.

By IC50 is commonly meant the concentration needed to halve the response being measured.

Data set [1] deals with human hepatic cell line (WRL-68). In words: MTT cytotoxicity assay, normal WRL-68. The conditions noted are these: normal cells. The format is cell-based. From the text: (§1) In vitro cytotoxic potency of the investigated extracts was established using the colorimetric (MTT) assay. The three cancer cell lines involved were the human breast adenocarcinoma (MCF-7), murine myelomonocytic leukaemia (WEHI-3) and human promyelocytic leukaemia (HL-60). The three normal cell lines used were the human mammary epithelial cell line (MCF10A), primary dermal fibroblasts cell line (HDFa) and the human hepatic cell line (WRL-68). All cells were from American Type Culture Collection (ATCC) and were subcultured in tissue culture flask (75 cm) with RPMI1640 media mixed with 10% fetal bovine serum and 1% penicillin–streptomycin and kept in an incubator at 5% of CO2 saturation and 37 °C. The following solutions were prepared: crude extracts (dissolved in 1% DMSO) at various concentrations (100, 50, 25, 12.5, 6.3, 3.5, 1.5 and 0 µg/mL); and peperomin A, phytosterol mixture and standard drugs (Taxol and vinblastine) as positive controls at decreasing concentrations (50, 25, 12.5, 6.3, 3.5, 1.5, and 0 µg/mL). N,N′-diphenethyloxamide was not involved in the biological assay because of the low yield obtained. Extracts were incubated with the cancer cell lines for 72 h, and peperomin A and the phytosterol mixture were incubated for 24, 48 and 72 h. After the incubation periods, 20 µL of MTT solution (5 mg/mL) was added to each well and incubated for 4 h. To dissolve the formazan crystals formed, 100 µL of DMSO was added to each well. The IC50 values were calculated from the plot of cancer cell growth versus the concentration of extracts/compounds.

Data set [2] deals with murine myelomonocytic leukaemia (WEHI-3). The experiment in a line: MTT cytotoxicity assay, WEHI-3. The conditions noted are these: Mus musculus. The format is cell-based.
Text: as §1
Background: Tetrazolium assays rely on reduction of a dye to a coloured formazan, in cell work by metabolically active cells.

Data set [3] relates to human mammary epithelial cell line (MCF10A). In words: MTT cytotoxicity assay, normal MCF10A. The format is cell-based. Conditions: MCF-10A, normal cells.
Text: as §1

Data set [4] concerns human promyelocytic leukaemia (HL-60). The experiment in a line: MTT cytotoxicity assay, HL-60. The format is cell-based.
Text: as §1

Data set [5] relates to primary dermal fibroblasts cell line (HDFa). The experiment in a line: MTT cytotoxicity assay, normal HDFa. The format is cell-based. Conditions: Homo sapiens, normal cells.
Text: as §1

Data set [6] has as its system human breast adenocarcinoma (MCF-7). In words: MTT cytotoxicity assay, MCF-7. The conditions noted are these: for IC50: Homo sapiens; for Selectivity index: ratio of mean IC50 in normal MCF10a over mean IC50 in MCF-7: Table 4. In kind it is cell-based.
Text: as §1

A short description of data set [7]: DPPH free radical scavenging assay. Conditions: for DPPH IC50: 30 min, 517 nm. How it is done: The free radical scavenging activities of the extracts, peperomin A and phytosterol mixture were estimated using the 1,1-diphenyl-2-picryl-hydrazyl (DPPH) assay. Quantitative estimation was done in 96-well ELISA plates in triplicate. Complete of 70 µL of DMSO was brought for each well followed by 100 µL of plant extract solution or isolated tested compounds. Various concentrations of each extract and peperomin A (15.6 –1,000 µg/mL) were used. Similar concentrations of ascorbic acid were used as positive control. A total of 30 µL DPPH (3.14 X 10^−3 µM) was added to each well, then the plate was allowed to stand in the dark at 25 °C for 30 min, and the absorbance was later recorded taken at 517 nm. The free radical scavenging activity was calculated using the following equation: Free radical scavenging activity%=Abs of DPPH−Abs of sample∕Abs of DPPH×100%. where Abs is absorbance. The relationship between each concentration and its scavenging percentage was plotted, and the IC50 value was calculated by interpolation. Scavenging activity was represented by IC50 values (the extract concentration that scavenges 50% of DPPH radicals).
(In general: The DPPH test is a chemical assay of radical scavenging.)

Data set [8] in a line: FRAP ferric reducing assay. The conditions noted are these: for FRAP: 593 nm. As for the experimental part: The antioxidant power of P. blanda extracts by ferric reduction was done by preparing fresh FRAP reagent from acetate buffer (pH 3.6), a solution of 10 mM TPTZ (2,4,6-tri(2-pyridyl)-s-triazine) in 40 mM HCl and a solution of 20 mM iron (III) chloride in a ratio of 10:1:1 (%v/v) ([Brand-Williams, Cuvelier & Berset, 1995]; [Mohammadzadeh et al., 2007]; [Mothana et al., 2009]; [Salazar-Aranda et al., 2011]), butylated hydroxytoluene (BHT), and ascorbic acid were used as controls. Then, 10 µL of plant extracts, peperomin A, ferrous sulfate (standard) and the controls were added to 300 µL FRAP reagent (triplicate) in the dark and the absorbance was measured at 593 nm. A linear standard curve was constructed using […] FeSO4. The results were represented as the ratio of the concentration of iron(III) mM over the extract dry weight (g).

Another data set concerns C8166 cell line. The conditions noted are these: no reference given; cited from earlier work.
For another data set, the system named is HIV-1 IIIB. Conditions: no reference given; cited from earlier work.

In the case of `CC(=O)O[C@H]1C(=O)[C@@]2(C)[C@H]([C@H](OC(=O)c3ccccc3)[C@]3(O)C[C@H](OC(=O)[C@H](O)[C@@H](NC(=O)c4ccccc4)c4ccccc4)C(C)=C1C3(C)C)[C@]1(OC(C)=O)CO[C@@H]1C[C@@H]2O` [Paclitaxel], the IC50 in data set [1] (WRL68, 24 hr) was over 50 µg/mL; in data set [1] (WRL68, 48hr), over 50 µg/mL; in data set [1] (WRL68, 72hr), over 50 µg/mL; in data set [2] (24 hr), 3.16 ± 0.02 µg/mL (≈ 3.7 µM); in data set [2] (48hr) it was 2.15 ± 0.02 µg/mL (≈ 2.52 µM); in data set [2] (72hr), 1.9 ± 0.9 µg/mL (≈ 2.23 µM). The IC50 in [3] (24 hr) is over 50 µg/mL; in data set [3] (48hr), over 50 µg/mL; in data set [3] (72hr), over 50 µg/mL; in [4] (HL-60, 24 h, 24 hr) it was 12.7 ± 0.4 µg/mL (≈ 14.9 µM); in data set [4] (HL-60, 48 h, 48hr) it was 8.67 ± 0.76 µg/mL (≈ 10.2 µM); in data set [4] (HL-60, 72 h, 72hr) it was 5.13 ± 0.32 µg/mL (≈ 6.01 µM). Besides, the IC50 in data set [5] (24 hr) is over 50 µg/mL; in [5] (48hr), over 50 µg/mL; in data set [5] (72hr), over 50 µg/mL; in data set [6] (MCF7, 24 h, 24 hr) it was 5.87 ± 0.19 µg/mL (≈ 6.87 µM); in data set [6] (MCF7, 48 h, 48hr), 4.47 ± 0.03 µg/mL (≈ 5.23 µM); in data set [6] (MCF7, 72 h, 72hr) it was 3.56 ± 0.34 µg/mL (≈ 4.17 µM). In data set [6] (MCF7, 72 h, 72 hr, Table 3), this compound returned an IC50 of 3 ± 0.07 µg/mL (≈ 3.51 µM).

Take `CC[C@]1(O)C[C@@H]2CN(CCc3c([nH]c4ccccc34)[C@@](C(=O)OC)(c3cc4c(cc3OC)N(C)[C@H]3[C@@](O)(C(=O)OC)[C@H](OC(C)=O)[C@]5(CC)C=CCN6CC[C@]43[C@@H]65)C2)C1` [Vinblastine]: the IC50 in data set [1] (WRL68, 24 hr) is over 50 µg/mL; in [1] (WRL68, 48hr), over 50 µg/mL; in [1] (WRL68, 72hr), over 50 µg/mL; in data set [2] (24 hr), 4.11 ± 0.06 µg/mL (≈ 5.07 µM); in data set [2] (48hr), 3.56 ± 0.07 µg/mL (≈ 4.39 µM); in data set [2] (72 hr, Table 3), 0.57 ± 0.035 µg/mL (≈ 0.703 µM). The IC50 was over 50 µg/mL in data set [3] (24 hr); over 50 µg/mL in data set [3] (48hr); over 50 µg/mL in data set [3] (72hr); 5.91 ± 0.31 µg/mL (≈ 7.29 µM) in [4] (HL-60, 24 h, 24 hr); 4.81 ± 0.19 µg/mL (≈ 5.93 µM) in data set [4] (HL-60, 48 h, 48hr); 2.36 ± 0.08 µg/mL (≈ 2.91 µM) in data set [4] (HL-60, 72 h, 72hr). Further, the 50% inhibitory concentration (IC50) in data set [4] (HL-60, 72 h, 72 hr, Table 3) is 5 ± 0.01 µg/mL (≈ 6.17 µM); in [5] (24 hr) it was over 50 µg/mL; in [5] (48hr) it was over 50 µg/mL; in data set [5] (72hr) it was over 50 µg/mL; in data set [6] (MCF7, 24 h, 24 hr) it was 14.6 ± 0.16 µg/mL (≈ 18 µM); in [6] (MCF7, 48 h, 48hr), 7.57 ± 0.5 µg/mL (≈ 9.33 µM). In [6] (MCF7, 72 h, 72hr), this compound came in with a half-maximal inhibitory concentration (IC50) of 5.16 ± 0.42 µg/mL (≈ 6.36 µM).

Consider `Cc1cc(C(C)(C)C)c(O)c(C(C)(C)C)c1` [BHT, butylated hydroxytoluene], for which the “DPPH IC50” value in [7] is 286.64 ± 8.54 µg/mL. The FRAP in data set [8] is on record as 1738.80 ± 9.53 M Fe(II)/g.

With `COc1cc(C(c2cc(OC)c3c(c2)OCO3)[C@@H]2COC(=O)[C@H]2C)cc2c1OCO2` [Peperomin A], the IC50 in data set [1] (WRL68, 24 hr) was over 50 µg/mL; in data set [1] (WRL68, 48hr) it was over 50 µg/mL; in [1] (WRL68, 72hr), 41.5 ± 0.54 µg/mL (≈ 100 µM); in [2] (24 hr), 20.1 ± 0.46 µg/mL (≈ 48.5 µM); in data set [2] (48hr) it was 18.7 ± 0.73 µg/mL (≈ 45.1 µM); in data set [2] (72hr), 4.62 ± 0.03 µg/mL (≈ 11.1 µM). Further, the IC50 in data set [3] (24 hr) is over 50 µg/mL; in [3] (48hr), over 50 µg/mL; in data set [3] (72hr), over 50 µg/mL; in [4] (HL-60, 24 h, 24 hr) it was 43.62 ± 0.1 µg/mL (≈ 105 µM); in data set [4] (HL-60, 48 h, 48hr) it was 26.34 ± 0.26 µg/mL (≈ 63.6 µM); in [4] (HL-60, 72 h, 72hr), 16.4 ± 0.62 µg/mL (≈ 39.5 µM). In addition, the IC50 was over 50 µg/mL in [5] (24 hr); over 50 µg/mL in [5] (48hr); over 50 µg/mL in data set [5] (72hr); 40.7 ± 0.92 µg/mL (≈ 98.3 µM) in [6] (MCF7, 24 h, 24 hr); 9.22 ± 0.28 µg/mL (≈ 22.2 µM) in [6] (MCF7, 48 h, 48hr); 5.58 ± 0.47 µg/mL (≈ 13.5 µM) in data set [6] (MCF7, 72 h, 72hr). The “cytotoxic activity against the C8166 cell line” value with C8166 cell line is reported as “cytotoxic activity”. In addition, the “free radical scavenging activity (in words)” value in data set [7] is listed as “weak”. Further, in [7], the “DPPH IC50” value worked out at 536.61 ± 6.00 µg/mL. For the same compound, the “ferric reducing power (in words)” value in [8] is “weak”. Moreover, in [8], the FRAP is on record as 20.79 ± 0.66 M Fe(II)/g. Moreover, the “inhibitory effects on HIV-1 IIIB growth in C8166 cells (cytopathic effect, CPE)” value in the data set on HIV-1 IIIB is on record as “moderate inhibitory effects”. Besides, in data set [6], the “selectivity index values for cancer cells” value was “greater than 1”. In addition, the “Selectivity index: ratio of mean IC50 in normal MCF10a over mean IC50 in MCF-7” value in data set [6] (24 hr) is given as 1.1; in data set [6] (48hr) it was 1.3; in [6] (72hr) it was 7.4.

Turning to `COc1cc([C@@H](c2cc(OC)c3c(c2)OCO3)[C@@H]2COC(=O)[C@H]2C)cc(OC)c1OC` [peperomin B], the “cytotoxic activity against the C8166 cell line” value with C8166 cell line is given as “cytotoxic activity”. The “inhibitory effects on HIV-1 IIIB growth in C8166 cells (cytopathic effect, CPE)” value with HIV-1 IIIB is “moderate inhibitory effects”.

As for `O=C1O[C@H]([C@@H](O)CO)C(O)=C1O` [VIT C, ascorbic acid], the “DPPH IC50” value in [7] was found to be 20.40 ± 0.50 µg/mL. The FRAP in data set [8] is 2603.90 ± 10.54 M Fe(II)/g.
